The values that follow come from patent US12391643B2, “Substituted amino-thiol and amino-disulfide compounds, and uses thereof” (The Regents of the University of California, priority 2019, dated 2025).

Entries after “also recorded” stand apart in the source; their conditions may differ.

Data set [1] deals with cystinotic fibroblasts. Nature of the data set: Cystine re-accumulation after washout in cystinotic fibroblasts. Format: cell-based, human. To be noted: 3 h incubation with 100 μM cystamine, then cystamine-free media. As for the experimental part:
(§1) In vitro experiments with isotopically enriched cystamine in cystinotic fibroblasts. Fibroblasts from a de-identified cystinotic patient were split 3× from 2 plates into 36 plates. Three different drugs were used for the experiments: cystamine (non-labeled), d2-cystamine, and d4-cystamine. There were two time series for each drug. The first was with constant drug incubation and included: 0, 10 min, 30 min, 1 h, 3 h, and 5 h. The other series included a washout after 3 h drug incubation, using fresh media following a PBS wash, and included the timepoints: 0, 30 min, 1 h, 3 h, 5 h, and 17 h. A direct quench and extraction technique were used for harvesting all cells to minimize further oxidation and metabolism. This included 2× washes with PBS that included 5 mM N-ethylmaleimide for trapping free thiol groups, and then scraping the plates with an acidified organic solvent extraction solution containing both d4-cystine and d4-cysteamine (plus d-8 cystamine) as internal standards. All samples were run on an API 4500 triple quadrupole LC-MS/MS, with selective reaction monitoring (SRM/MRM) for the following compounds of interest: cystine, NEM-cysteamine, NEM-cysteine, cystamine, and 2-(methylthio)ethylamine. All data fit well to single exponential curves (either decay or association), except where mentioned.
Cystine measurement after washout: Fibroblast cultures were exposed to 100 uM cystamine/d2-cystamine/d4-cystamine for 3 h. Following incubation, cells were washed with PBS, and then incubated with regular media (containing FBS) for the following timepoints: 0 min, 30 min, 1 h, 3 h, 5 h, and 17 h. Cells were harvested identically as described previously.
(§2) Fibroblasts from a de-identified cystinotic patient were split 3× from 2 plates into 18 plates. Two different drugs were used for the experiments: D4n-cystamine, and D8-cystamine. There were two time series for each drug. The first was with constant drug incubation and included: 0, 15 min, 30 min, 1 hr, and 3 hr. The other series included a washout after 3 hours of drug incubation, using fresh media following a PBS wash, and included the time-points: 0, 1 hr, 3 hr, and 16 hr. A direct quench and extraction technique was used for harvesting all cells to minimize further oxidation and metabolism. […] All samples were run on an API 4500 triple quadruple LC-MS/MS, with selective reaction monitoring (SRM/MRM) for the following compounds of interest: cystine, NEM-cysteamine, NEM-cysteine, and cystamine. All data fit well to single exponential curves (either decay or association), except where mentioned.
Fibroblast cultures were exposed to 50 μM cystamine (D8 or D4n) for 3 hours. Following incubation, cells were washed with PBS and then incubated with regular mediate containing FBS for 1 h, 3 h, and 16 h. Cells were harvested as above. […] Cystine reaccumulation between D4n-cystamine and D8-cystamine are very similar, indicating similar levels of drug remaining during the washout timepoints (FIG. 15).

For data set [2], the system named is cystinotic fibroblasts. In words: Intracellular NEM-cysteamine, NEM-cysteine, cystamine and mixed disulfide levels in cystinotic fibroblasts. To be noted: cystamine 50, 100, 200 μM compared with cysteamine 200 μM (FIG. 2). In kind it is cell-based, human.
In the next data set the test system is Pooled human hepatocytes. In words: Hepatocyte elimination (in vitro metabolic stability, percent parent remaining by LC/MS/MS). Format: in vitro ADME. From the text:
In vitro experiments with isotopically enriched cystamine and cysteamine in hepatocytes.
The assessment of in vitro metabolic stability provides a means to measure the susceptibility of a test compound to biotransformation by the liver. While liver microsomes primarily assess cytochrome P450 system-mediated metabolism (phase I metabolism), hepatocytes represent a complete, undisrupted metabolic system, including cofactors, and thus assess both phase I and phase II metabolism. In all cases, the metabolic stability of test compounds was determined by monitoring, via LC/MS/MS, the percent parent compound remaining versus time of incubation in human hepatocytes.
Pooled human hepatocytes (catalog number HMCS10, ThermoFischer Scientific) were thawed according to the manufacturers instructions. Thawed hepatocytes were washed by centrifugation and replated in Williams' Medium E supplemented with Heptocyte Plating Supplement Pack, Serum-containing.
Cells were diluted to 1,000,000 per ml in maintenance media (Williams' E Media supplemented with Hepatocyte Maintenance Supplement Pack, Serum-free). 500 μl of cell suspension was added to each well of a microtiter plate containing 500 μl of the deuterated test agent and placed on an orbital shaker at 120 rpm at 37 C. At the appropriate time point 50 μl aliquots were removed from the well and added to 50 μl of ice cold ethyl acetate and vortexed for 5 min and froze until chromatography analysis.

The subject of data set [3] is cystinotic fibroblasts. In words: Cystine depletion during constant drug exposure in cystinotic fibroblasts. To be noted: cystamine 50, 100, 200 μM; cysteamine 200 μM (FIG. 1). In kind it is cell-based, human. As for the experimental part: as §1
Following incubation, cells were washed 2× in PBS containing N-ethylmaleimide.
as §2

In data set [4] the test system is cystinotic fibroblasts. In words: Intracellular NEM-cysteamine, NEM-cysteine, cystamine and mixed disulfide levels in cystinotic fibroblasts. To be noted: for NEM-cysteamine level during constant incubation: 100 uM drug, early timepoints, normalized against d4-cystine; for Intracellular cystamine level during constant drug incubation: FIG. 10. In kind it is cell-based, human. As for the experimental part: as §1
NEM-cysteamine and NEM-cysteine during constant incubation. Fibroblast cultures were exposed to drug (either cystamine, d2-cystamine, or d4-cystamine) and harvested as described on page 2 for the cystine depletion curve. NEM-cysteamine (or NEM-d1-cysteamine or NEM-d2-cysteamine) was measured for each respective plate and normalized against the signal for d4-cystine.
NEM-cysteamine during washout. Fibroblast cultures were exposed to drug (either cystamine, d2-cystamine, or d4-cystamine) for 3 h were then exposed to media for various timepoints and harvested as previously described.
NEM-cysteine during washout. Fibroblast cultures were exposed to drug (either cystamine, d2-cystamine, or d4-cystamine) for 3 h were then exposed to media for various timepoints and harvested as previously described.
Cystamine during constant drug incubation. Fibroblast cultures were exposed to drug (either cystamine, d2-cystamine, or d4-cystamine) for various timepoints following harvesting as described earlier. Cystamine could be measured in the non-labeled cystamine incubation as well as the d4-cystamine incubation. d2-cystamine could not be accurately measured due to a strong background interference signal corresponding to that mass. No cystamine could be measured in the washout experiments.

Data set [5] concerns intracellular cystine (circulating white blood cells). To be noted: taken regularly; measured in circulating white blood cells; cited from earlier work.

`NCCSSCCN` [Cystamine]: the “Cystine level 17 h after washout versus plates not exposed to cystamine” value with cystinotic fibroblasts [1] is “identical to the 17 h cystine measurement”. In the data set on cystinotic fibroblasts [2], the “Conversion of intracellular cystine to mixed disulfide (MD) of cysteine-cysteamine” value is recorded as “delayed”. Also, the “Hepatocyte elimination, % remaining” value in the data set with Pooled human hepatocytes (TIME 0 min) is given as 100%; in the data set with Pooled human hepatocytes (TIME 15 min) it was 18.5%; in the data set with Pooled human hepatocytes (TIME 30 min) it was 6.5%. Besides, the “Reduction of intracellular cystine levels” value in the data set with cystinotic fibroblasts [3] is on record as “effective in reducing intracellular cystine levels in a dose-response fashion”. Also, the “NEM-cysteamine level during constant incubation” value was “faster/higher; also recorded: Higher levels of cysteamine” in the data set with cystinotic fibroblasts [4] and “highest” with cystinotic fibroblasts [4] (listed as non-labeled cystamine). Moreover, the “Intracellular cystamine level during constant drug incubation” value in the data set on cystinotic fibroblasts [4] is given as “deplete rapidly”; in the data set with cystinotic fibroblasts [4] (listed as cystamine), “depletes rapidly”. For the same compound, the “NEM-cysteine level after 3 h incubation and washout” value with cystinotic fibroblasts [4] (washout period) was “rise and increase”.

Regarding `NCCS` [Cysteamine, reference compound], the “Depletion of intracellular cystine” value in data set [5] is on record as “up to 90%”. The “Reduction of intracellular cystine levels” value with cystinotic fibroblasts [3] is “effective and more rapid in its response time”.
